Literature values as cited in patent EP1693447A1, “Procedure for the preparation of superoxide dismutase” (Gnosis S.p.A., priority 2005, dated 2006).

Tested on: superoxide dismutase
Conditions: SOD currently on the market

Bovine liver - PEG superoxide dismutase - freeze-dried powder: type of SOD currently on the market, PEG superoxide dismutase
superoxide dismutase units/mg of protein: Bovine liver - PEG superoxide dismutase - freeze-dried powder ≥ 1,350 units/mg of protein
